Source: ChEMBL document CHEMBL3046213, “Repellent, insecticidal and phytotoxic activities of isoalantolactone from Inula racemosa” (Crop Prot, 2006)

Columns and labels:
Sitophilus oryzae [1] = assay: Insecticidal activity against Sitophilus oryzae (rice weevil) assessed as mortality at 200 ug/g after 10 days by food poison technique relative to control; assay type: functional
Sitophilus oryzae [2] = assay: Insecticidal activity against Sitophilus oryzae (rice weevil) assessed as mortality at 1000 ug/g after 15 days by food poison technique relative to acetone-treated control; assay type: functional
Triticum aestivum [3] = assay: Phytotoxicity in Triticum aestivum (wheat) assessed as shoot growth at 500 ug/ml pre-soaked for 30 min measured after 48 hr relative to acetone-treated control; assay type: organism-based; conditions: in vivo
Sitophilus oryzae [4] = assay: Insecticidal activity against Sitophilus oryzae (rice weevil) assessed as mortality at 400 ug/g after 20 days by food poison technique relative to acetone-treated control; assay type: functional
Sitophilus oryzae [5] = assay: Insecticidal activity against Sitophilus oryzae (rice weevil) assessed as mortality at 3000 ug/g after 20 days by food poison technique relative to acetone-treated control; assay type: functional
Sitophilus oryzae [6] = assay: Insecticidal activity against Sitophilus oryzae (rice weevil) assessed as mortality at 1000 ug/g after 5 days by food poison technique relative to acetone-treated control; assay type: functional
Triticum aestivum [7] = assay: Phytotoxicity in Triticum aestivum (wheat) assessed as root growth at 500 ug/ml pre-soaked for 30 min measured after 120 hr relative to acetone-treated control; assay type: organism-based; conditions: in vivo
Sitophilus oryzae [8] = assay: Insecticidal activity against Sitophilus oryzae (rice weevil) assessed as mortality at 400 ug/g after 10 days by food poison technique relative to acetone-treated control; assay type: functional
Sitophilus oryzae [9] = assay: Insecticidal activity against Sitophilus oryzae (rice weevil) assessed as mortality at 0.05 ug/g after 20 days by food poison technique relative to acetone-treated control; assay type: functional
Sitophilus oryzae [10] = assay: Repellent activity against Sitophilus oryzae (rice weevil) assessed as settling responses at 50 ug/g preincubated for 12 hr prior to inoculation measured after 24 hr by food preference chamber method (reference value: 49.45 +/- 2.65 %); assay type: functional
Triticum aestivum [11] = assay: Phytotoxicity in Triticum aestivum (wheat) assessed as shoot growth at 500 ug/ml pre-soaked for 60 min measured after 72 hr relative to acetone-treated control; assay type: organism-based; conditions: in vivo
Sitophilus oryzae [12] = assay: Insecticidal activity against Sitophilus oryzae (rice weevil) assessed as mortality at 0.05 ug/g after 10 days by food poison technique relative to acetone-treated control; assay type: functional
Triticum aestivum [13] = assay: Phytotoxicity in Triticum aestivum (wheat) assessed as shoot growth at 500 ug/ml pre-soaked for 60 min measured after 96 hr relative to acetone-treated control; assay type: organism-based; conditions: in vivo
Sitophilus oryzae [14] = assay: Repellent activity against Sitophilus oryzae (rice weevil) assessed as settling responses at 75 ug/g preincubated for 12 hr prior to inoculation measured after 24 hr by food preference chamber method (reference value: 49.45 +/- 2.65 %); assay type: functional
Sitophilus oryzae [15] = assay: Repellent activity against Sitophilus oryzae (rice weevil) assessed as settling responses at 125 ug/g preincubated for 12 hr prior to inoculation measured after 24 hr by food preference chamber method (reference value: 49.45 +/- 2.65 %); assay type: functional
Triticum aestivum [16] = assay: Phytotoxicity in Triticum aestivum (wheat) assessed as root growth at 500 ug/ml pre-soaked for 60 min measured after 48 hr relative to acetone-treated control; assay type: organism-based; conditions: in vivo
Sitophilus oryzae [17] = assay: Insecticidal activity against Sitophilus oryzae (rice weevil) assessed as mortality at 200 ug/g after 5 days by food poison technique relative to acetone-treated control; assay type: functional
Triticum aestivum [18] = assay: Phytotoxicity in Triticum aestivum (wheat) assessed as shoot growth at 500 ug/ml pre-soaked for 60 min measured after 120 hr relative to acetone-treated control; assay type: organism-based; conditions: in vivo
Sitophilus oryzae [19] = assay: Insecticidal activity against Sitophilus oryzae (rice weevil) assessed as mortality after 10 days by food poison technique; assay type: functional
Triticum aestivum [20] = assay: Phytotoxicity in Triticum aestivum (wheat) assessed as root growth at 500 ug/ml pre-soaked for 30 min measured after 72 hr relative to acetone-treated control; assay type: organism-based; conditions: in vivo
Sitophilus oryzae [21] = assay: Insecticidal activity against Sitophilus oryzae (rice weevil) assessed as mortality after 5 days by food poison technique; assay type: functional
Sitophilus oryzae [22] = assay: Insecticidal activity against Sitophilus oryzae (rice weevil) assessed as mortality at 3000 ug/g after 5 days by food poison technique relative to acetone-treated control; assay type: functional
Triticum aestivum [23] = assay: Phytotoxicity in Triticum aestivum (wheat) assessed as germination rate at 500 ug/ml pre-soaked for 30 min measured after 72 hr relative to acetone-treated control; assay type: organism-based; conditions: in vivo
Triticum aestivum [24] = assay: Phytotoxicity in Triticum aestivum (wheat) assessed as root growth at 500 ug/ml pre-soaked for 30 min measured after 48 hr relative to acetone-treated control; assay type: organism-based; conditions: in vivo
Sitophilus oryzae [25] = assay: Insecticidal activity against Sitophilus oryzae (rice weevil) assessed as mortality at 400 ug/g after 5 days by food poison technique relative to acetone-treated control; assay type: functional
Sitophilus oryzae [26] = assay: Insecticidal activity against Sitophilus oryzae (rice weevil) assessed as mortality at 2000 ug/g after 20 days by food poison technique relative to acetone-treated control; assay type: functional
Sitophilus oryzae [27] = assay: Insecticidal activity against Sitophilus oryzae (rice weevil) assessed as mortality after 15 days by food poison technique; assay type: functional
Triticum aestivum [28] = assay: Phytotoxicity in Triticum aestivum (wheat) assessed as germination rate at 500 ug/ml pre-soaked for 30 min measured after 24 hr relative to acetone-treated control; assay type: organism-based; conditions: in vivo
Triticum aestivum [29] = assay: Phytotoxicity in Triticum aestivum (wheat) assessed as root growth at 500 ug/ml pre-soaked for 60 min measured after 120 hr relative to acetone-treated control; assay type: organism-based; conditions: in vivo
Sitophilus oryzae [30] = assay: Insecticidal activity against Sitophilus oryzae (rice weevil) assessed as mortality after 20 days by food poison technique; assay type: functional
Sitophilus oryzae [31] = assay: Insecticidal activity against Sitophilus oryzae (rice weevil) assessed as mortality at 2000 ug/g after 10 days by food poison technique relative to acetone-treated control; assay type: functional

C=C1C(=O)O[C@@H]2C[C@@]3(C)CCCC(=C)[C@@H]3C[C@H]12 [ISOALANTOLACTONE]
mortality (Sitophilus oryzae [1]): 16.67% | mortality (Sitophilus oryzae [2]): 69.23% | Activity (Triticum aestivum [3]): 100% | mortality (Sitophilus oryzae [4]): 35.91% | mortality (Sitophilus oryzae [5]): 100% | mortality (Sitophilus oryzae [6]): 42.86% | Activity (Triticum aestivum [7]): 101.2% | mortality (Sitophilus oryzae [8]): 23.81% | mortality (Sitophilus oryzae [9]): 100% | Activity (Sitophilus oryzae [10]): 12.87% | Activity (Triticum aestivum [11]): 51.7% | mortality (Sitophilus oryzae [12]): 100% | Activity (Triticum aestivum [13]): 47.9% | Activity (Sitophilus oryzae [14]): 12.41% | Activity (Sitophilus oryzae [15]): 13.22% | Activity (Triticum aestivum [16]): 46% | mortality (Sitophilus oryzae [17]): 11.9% | Activity (Triticum aestivum [18]): 63.5% | LC50 (Sitophilus oryzae [19]): 707.21 µg/g | Activity (Triticum aestivum [20]): 97.4% | LC50 (Sitophilus oryzae [21]): 1234.57 µg/g | mortality (Sitophilus oryzae [22]): 100% | Activity (Triticum aestivum [23]): 100% | Activity (Triticum aestivum [24]): 100.7% | mortality (Sitophilus oryzae [25]): 19.04% | mortality (Sitophilus oryzae [26]): 100% | LC50 (Sitophilus oryzae [27]): 655.31 µg/g | Activity (Triticum aestivum [28]): 106.7% | Activity (Triticum aestivum [29]): 83.9% | LC50 (Sitophilus oryzae [30]): 610.51 µg/g | mortality (Sitophilus oryzae [31]): 100%
